Reference: PubChem BioAssay AID1963445 (Molecular Pharmacology Branch, DTP, NCI, 2024)

Test system: MCF7 complex spheroid growth, % test/control
Assay: Anticancer human tumor MCF7 cell line growth inhibition [Asc];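 further: spheroids exposed to compounds for 7 days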;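 on viability, T/C: 100% = DMSO vehicle control wells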
Details: for IC50: curve of first compound; for viability, T/C: stronger effect = lower value
Procedure, shortened: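 Concentration series start at each agent's clinical Cmax, or at 10 microM when none is established, and drop in half-log steps; agents are applied alone or together to complex spheroids built with HUVEC and hMSC.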

IC50 (second compound 0.00316 µM): < 9.49 nM
IC50 (second compound 0.01 µM): < 9.49 nM
IC50 (second compound 0.0316 µM): < 9.49 nM
IC50 (second compound 0.1 µM): < 9.49 nM
IC50 (second compound 0.316 µM): < 9.49 nM
IC50 (second compound 1 µM): < 9.49 nM
SMILES: Cc1nc(N2CCC3(CC2)COC(C)C3N)c(CO)nc1Sc1ccnc(N)c1Cl (configuration not stated) + CNC(C)C(=O)NC1CN(S(=O)(=O)c2cccc(S(=O)(=O)N3CCC4CCC(C(=O)NC(c5ccccc5)c5ccccc5)N4C(=O)C(NC(=O)C(C)NC)C3)c2)CCC2CCC(C(=O)NC(c3ccccc3)c3ccccc3)N2C1=O
viability, T/C (second compound 0.00316 µM, first compound 0.00949 µM): 26.7%
viability, T/C (second compound 0.00316 µM, first compound 0.03 µM): 31.8%
viability, T/C (second compound 0.00316 µM, first compound 0.0949 µM): 19.9%
viability, T/C (second compound 0.00316 µM, first compound 0.3 µM): 17.6%
viability, T/C (second compound 0.00316 µM, first compound 0.949 µM): 10.6%
viability, T/C (second compound 0.00316 µM, first compound 3 µM): 10.9%
viability, T/C (second compound 0.01 µM, first compound 0.00949 µM): 15.9%
viability, T/C (second compound 0.01 µM, first compound 0.03 µM): 11.2%
viability, T/C (second compound 0.01 µM, first compound 0.0949 µM): 10.3%
viability, T/C (second compound 0.01 µM, first compound 0.3 µM): 13%
viability, T/C (second compound 0.01 µM, first compound 0.949 µM): 11.4%
viability, T/C (second compound 0.01 µM, first compound 3 µM): 11.1%
viability, T/C (second compound 0.0316 µM, first compound 0.00949 µM): 12.7%
viability, T/C (second compound 0.0316 µM, first compound 0.03 µM): 10.7%
viability, T/C (second compound 0.0316 µM, first compound 0.0949 µM): 12.2%
viability, T/C (second compound 0.0316 µM, first compound 0.3 µM): 11.9%
viability, T/C (second compound 0.0316 µM, first compound 0.949 µM): 11.3%
viability, T/C (second compound 0.0316 µM, first compound 3 µM): 9.37%
viability, T/C (second compound 0.1 µM, first compound 0.00949 µM): 10.1%
viability, T/C (second compound 0.1 µM, first compound 0.03 µM): 12.7%
viability, T/C (second compound 0.1 µM, first compound 0.0949 µM): 11.3%
viability, T/C (second compound 0.1 µM, first compound 0.3 µM): 10.4%
viability, T/C (second compound 0.1 µM, first compound 0.949 µM): 10.6%
viability, T/C (second compound 0.1 µM, first compound 3 µM): 10.1%
viability, T/C (second compound 0.316 µM, first compound 0.00949 µM): 13.9%
viability, T/C (second compound 0.316 µM, first compound 0.03 µM): 12.2%
viability, T/C (second compound 0.316 µM, first compound 0.0949 µM): 11.5%
viability, T/C (second compound 0.316 µM, first compound 0.3 µM): 11.6%
viability, T/C (second compound 0.316 µM, first compound 0.949 µM): 12.3%
viability, T/C (second compound 0.316 µM, first compound 3 µM): 12%
viability, T/C (second compound 1 µM, first compound 0.00949 µM): 13.6%
viability, T/C (second compound 1 µM, first compound 0.03 µM): 12.7%
viability, T/C (second compound 1 µM, first compound 0.0949 µM): 14.2%
viability, T/C (second compound 1 µM, first compound 0.3 µM): 11.9%
viability, T/C (second compound 1 µM, first compound 0.949 µM): 12.6%
viability, T/C (second compound 1 µM, first compound 3 µM): 11.9%
